# What was measured:
# Format in all cases: in vivo
# Blumeria graminis [1] = experiment: Greenhouse, Blumeria graminis on wheat, 2 days curative; details: Example 27
# Method: (§1) The trials are carried out under greenhouse (Examples 1 to 32) or field conditions (Examples 33 to 40) in residual or curative applications. The fungicides are applied in single treatments, or in a combination comprising an azolopyrimidine of formula I and a compound selected from the classes (A), (B) and (C) as defined above. The compounds are applied in form of an aqueous spray mix obtained from a concentrated formulation or the technical material.
# (§2) 1. Seed is planted in 6 cm diameter plastic pots and maintained in the greenhouse.
# (§3) 2. When the primary leaf is fully expanded in the case of cereals or several leaves are present in the case of dicots, formulated test compounds are sprayed with a three nozzle overhead fungicide sprayer to near run-off. Alternatively, a single nozzle overhead track sprayer is used for application of the compounds to cereals at a rate of 200 l/ha. Plants are then allowed to air-dry.
# (§4) 3. Inoculation precedes treatment in the case of curative evaluations and follows treatment in case of residual evaluations. For inoculation of powdery mildew disease, plants are set up on greenhouse benches with bottom watering mats and inoculated by dusting them with conidia from infected plants. Between inoculation and treatment for curative evaluations and between treatment and inoculation for residual evaluations, plants are maintained in the greenhouse with bottom watering.
# (§5) 4. Disease on the foliage as percent leaf area with disease symptoms/signs is evaluated about 7 days after inoculation. In the case of wheat, the tips and bases of the leaves are excluded from the evaluation. [formula]
# (§6) 1. Technical compounds are formulated in a solvent/surfactant system consisting of 5% acetone and 0.05% Tween 20 in deionized water. Compounds are dissolved in acetone prior to addition of the water; the Tween 20 can be added through either the acetone or the water. Dilutions are made using the solvent/surfactant system. Formulated compounds are prepared using deionized water.
# (§7) 2. Two kinds of controls are included: Plants treated with the solvent/surfactant solution and inoculated (Solvent Blank). Untreated plants which are inoculated (Inoculated Control).
# (§8) Assessments of the diseases took place at the indicated day after the application of the compounds. Per cent infected leaf area infected was evaluated. The efficacy of the compounds/compounds mixtures to control the diseases was calculated by using the formula given above under item 4: […]
# (§9) Synergy was calculated using the % disease control values of specific treatments for the two COLBY formula given hereinabove
# Fungicidal efficacy of the mixture of (S)-Azolopyrimidine C in admixture with Azoxystrobin or Trifloxystrobin (2 days curative) against Blumeria graminis on wheat. The tank mixes were obtained from technical material of (S)-Azolopyrimidine C and Azoxystrobin or Trifloxystrobin.
# Blumeria graminis [2] = experiment: Greenhouse, Blumeria graminis on barley, 2 days curative
# Method: as §1, §2, §3, §4, §5, §6, §7, §8, §9
# Fungicidal efficacy of the mixture of (S)-Azolopyrimidine C in admixture with Fenhexamid (2 days curative) against Blumeria graminis on barley. The tank mixes were obtained from technical material of (S)-Azolopyrimidine C and Fenhexamid.
# Fungicidal efficacy of the mixture of (S)-Azolopyrimidine C in admixture with Azoxystrobin or Trifloxystrobin (2 days curative) against Blumeria graminis on barley. The tank mixes were obtained from technical material of (S)-Azolopyrimidine C and Azoxystrobin or Trifloxystrobin.
# Blumeria graminis [3] = experiment: Field test, Blumeria graminis on wheat; details: 17 days after application
# Outline: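 Field trial on wheat: formulated products (SC/EC tank mixes, alone or in mixtures) sprayed as aqueous mix at 400 l/ha by good agricultural practice. Percent infected leaf area assessed 15 or 17 days after application; efficacy calculated as disease control, with synergy judged by the Colby formula.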
# Erysiphe cichoracearum = experiment: Greenhouse, Erysiphe cichoracearum on cucumbers, 1 day residual
# Method: as §1, §2, §3, §4, §5, §6, §7, §8, §9
# Fungicidal efficacy of the mixture of Azolopyrimidine C+triforine (1 day residual) against Erysiphe cichoracearum on cucumbers
# the tank mix was obtained from a SC formulation containing 100 g of Azolopyrimidine C per liter and an DC formulation containing and 190 g of triforine per liter.
# Fungicidal efficacy of the mixture of Azolopyrimidine C+cyprodinil (1 day residual) against Erysiphe cichoracearum on cucumbers The tank mix was obtained from a SC formulation containing 100 g of Azolopyrimidine C per liter and a WG formulation containing and 750 g of cyprodinil per kg.
# Septoria tritici = experiment: Greenhouse, Septoria tritici on wheat, 1 day residual; details: Example 9
# Method: as §1, §2, §3, §4
# (§10) For inoculation of non-powdery mildew diseases, an aqueous spore suspension of the pathogen is applied to the plant and the plants are kept 1-2 days in a moist infection chamber before being returned to the greenhouse where they are maintained by bottom watering.
# as §5, §6, §7, §8, §9
# Fungicidal efficacy of the mixture of Azolopyrimidine C+metconazole (1 day residual) against Septoria tritici on wheat The tank mix was obtained from a SC formulation containing 100 g Azoplopyrimidine C per liter and an EC containing 100 g metconazole per liter.
# Pyrenophora teres = experiment: Greenhouse, Pyrenophora teres on barley, 1 day residual; details: Example 10
# Method: as §1, §2, §3, §4, §10, §5, §6, §7, §8, §9
# Fungicidal efficacy of the mixture of Azolopyrimidine C+metconazole (1 day residual) against Pyrenophora teres on barley The tank mix was obtained from a SC formulation containing 100 g Azolopyrimidine C per liter and an EC containing 100 g metconazole per liter.
molecule,measurement,setting,value
"5-chloro-6-(2,4,6-trifluorophenyl)-7-(1,1,1-trifluoroprop-2-ylamino)-[1,2,4]triazolo[1,5-a]pyrimidine [(S)-Azolopyrimidine C]",Observed Efficacy,Blumeria graminis [1]; dose rate 1.6 ppm,0%
same,Observed Efficacy,Blumeria graminis [1]; dose rate 3.1 ppm,0%
same,Observed Efficacy,Blumeria graminis [1]; dose rate 6.3 ppm,10%
same,Observed Efficacy,Blumeria graminis [1]; dose rate 12.5 ppm,40%
same,Observed Efficacy,Blumeria graminis [1]; dose rate 25 ppm,61%
same,Observed Efficacy,Blumeria graminis [1]; dose rate 50 ppm,81%
same,Observed Efficacy,"Blumeria graminis [2]; Example 26, dose rate 0.74 ppm",0%
same,Observed Efficacy,"Blumeria graminis [2]; Example 26, dose rate 2.2 ppm",8%
same,Observed Efficacy,"Blumeria graminis [2]; Example 26, dose rate 6.7 ppm",29%
same,Observed Efficacy,"Blumeria graminis [2]; Example 26, dose rate 20 ppm",37%
same,Observed Efficacy,"Blumeria graminis [2]; Example 26, dose rate 60 ppm",60%
same,Observed Efficacy,"Blumeria graminis [2]; Example 26, dose rate 180 ppm",86%
same,Observed Efficacy,"Blumeria graminis [2]; Example 29, dose rate 1.6 ppm",0%
same,Observed Efficacy,"Blumeria graminis [2]; Example 29, dose rate 3.1 ppm",1%
same,Observed Efficacy,"Blumeria graminis [2]; Example 29, dose rate 6.3 ppm",15%
same,Observed Efficacy,"Blumeria graminis [2]; Example 29, dose rate 12.5 ppm",31%
same,Observed Efficacy,"Blumeria graminis [2]; Example 29, dose rate 25 ppm",54%
same,Observed Efficacy,"Blumeria graminis [2]; Example 29, dose rate 50 ppm",73%
same,Observed Efficacy,"Blumeria graminis [3]; Table XXXVI, (S)-Azolopyrimidine C 25 g/ha alone",63
same,Observed Efficacy,"Blumeria graminis [3]; Table XXXVI, (S)-Azolopyrimidine C 50 g/ha alone",78
same,Observed Efficacy,"Blumeria graminis [3]; Table XXXVI, (S)-Azolopyrimidine C 75 g/ha alone",74
same,Observed Efficacy,"Blumeria graminis [3]; Table XXXVII, (S)-Azolopyrimidine C 25 g/ha alone",63
same,Observed Efficacy,"Blumeria graminis [3]; Table XXXVII, (S)-Azolopyrimidine C 50 g/ha alone",78
same,Observed Efficacy,"Blumeria graminis [3]; Table XXXVII, (S)-Azolopyrimidine C 75 g/ha alone",74
same,Observed Efficacy,"Blumeria graminis [3]; Table XXXVII, (S)-Azolopyrimidine C 100 g/ha alone",96
"CC(Nc1c(-c2c(F)cc(F)cc2F)c(Cl)nc2ncnn12)C(F)(F)F (stereo not drawn) [Azolopyrimidine C, 5-chloro-6-(2,4,6-trifluorophenyl)-7-(1,1,1-trifluoroprop-2-ylamino)-[1,2,4]triazolo[1,5-a]pyrimidine]",Observed Efficacy,"Erysiphe cichoracearum; Example 23, dose rate 1 ppm",0%
same,Observed Efficacy,"Erysiphe cichoracearum; Example 23, dose rate 4 ppm",7%
same,Observed Efficacy,"Erysiphe cichoracearum; Example 24, dose rate 1 ppm",0%
same,Observed Efficacy,"Erysiphe cichoracearum; Example 24, dose rate 4 ppm",7%
same,Observed Efficacy,Septoria tritici; dose rate 2 ppm,0%
same,Observed Efficacy,Septoria tritici; dose rate 5 ppm,0%
same,Observed Efficacy,Septoria tritici; dose rate 8 ppm,0%
same,Observed Efficacy,Septoria tritici; dose rate 25 ppm,68%
same,Observed Efficacy,Septoria tritici; dose rate 40 ppm,91%
same,Observed Efficacy,Pyrenophora teres; dose rate 10 ppm,0%
same,Observed Efficacy,Pyrenophora teres; dose rate 25 ppm,0%
same,Observed Efficacy,Pyrenophora teres; dose rate 40 ppm,0%
same,Observed Efficacy,Pyrenophora teres; dose rate 50 ppm,0%
same,Observed Efficacy,Pyrenophora teres; dose rate 125 ppm,0%
